Target: T1, vanilloid receptor 1 (VR1/TRPV1 receptor) (Homo sapiens, UniProt Q8NER1)
T1 construct: expressed in transfected cells; host or cells: CHO K1 cells (ECACC), stably transfected
Assay: VR1/TRPV1 receptor affinity, capsaicin stimulus (human)
Assay type: cell-based, human being
Details: for Ki: Tables 8-12, read-out: (f) Ki (human being) [nM] Cap; for inhibition at 5 µM: Tables 8-12, read-out: (f) Ki (human being) [nM] Cap: inhibition (as a percentage)

T1 sequence (Q8NER1 whole entry): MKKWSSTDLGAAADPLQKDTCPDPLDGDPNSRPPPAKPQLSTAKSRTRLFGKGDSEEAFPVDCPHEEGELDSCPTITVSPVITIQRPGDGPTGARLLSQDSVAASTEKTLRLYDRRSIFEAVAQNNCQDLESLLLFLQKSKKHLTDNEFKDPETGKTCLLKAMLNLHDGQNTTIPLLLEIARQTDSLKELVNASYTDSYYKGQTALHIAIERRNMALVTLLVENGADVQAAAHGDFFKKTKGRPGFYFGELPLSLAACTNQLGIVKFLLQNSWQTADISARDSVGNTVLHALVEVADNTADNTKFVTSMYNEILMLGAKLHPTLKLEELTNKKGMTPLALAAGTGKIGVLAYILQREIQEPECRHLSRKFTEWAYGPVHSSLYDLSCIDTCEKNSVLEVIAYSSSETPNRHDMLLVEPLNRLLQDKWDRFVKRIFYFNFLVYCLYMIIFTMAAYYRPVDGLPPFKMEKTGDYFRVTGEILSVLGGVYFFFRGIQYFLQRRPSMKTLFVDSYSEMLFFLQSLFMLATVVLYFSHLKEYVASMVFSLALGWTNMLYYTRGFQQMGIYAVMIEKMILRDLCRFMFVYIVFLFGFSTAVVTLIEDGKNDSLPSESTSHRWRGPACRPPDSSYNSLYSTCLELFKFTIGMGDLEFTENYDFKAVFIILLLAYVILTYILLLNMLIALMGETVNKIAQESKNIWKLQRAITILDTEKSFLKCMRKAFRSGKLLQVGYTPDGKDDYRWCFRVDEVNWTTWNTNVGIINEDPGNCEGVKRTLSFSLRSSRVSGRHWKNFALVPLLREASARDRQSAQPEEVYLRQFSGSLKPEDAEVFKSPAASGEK

Row | Ki [nM] | inhibition at 5 µM [%] | SMILES
1 | 11 | – | CC(C)(C)c1cc(CNC(=O)Nc2ccc(CNS(C)(=O)=O)cc2)n(-c2cccc(Cl)c2)n1 [Example B28, 1-[[5-tert-Butyl-2-(3-chlorophenyl)-2H-pyrazol-3-yl]-methyl]-3-[4-(methanesulfonamido-methyl)-phenyl]-urea]
2 | 59 | – | CC(C(=O)NCc1cc(C(F)(F)F)nn1-c1cccc(Cl)c1)c1ccc(CN(C)S(C)(=O)=O)c(F)c1 (centres unmarked) [Example B29, N-[[2-(3-Chlorophenyl)-5-(trifluoromethyl)-2H-pyrazol-3-yl]-methyl]-2-[3-fluoro-4-[(methyl-methylsulfonyl-amino)-methyl]-phenyl]-propionamide]
3 | 39 | – | CC(C(=O)NCc1cc(C(C)(C)C)nn1-c1cccc(Cl)c1)c1ccc(CN(C)S(C)(=O)=O)c(F)c1 (centres unmarked) [Example B30, N-[[5-tert-Butyl-2-(3-chlorophenyl)-2H-pyrazol-3-yl]-methyl]-2-[3-fluoro-4-[(methyl-methylsulfonyl-amino)-methyl]-phenyl]-propionamide]
4 | 9 | – | CC(C)(C)c1cc(CNC(=O)Nc2ccc(CNS(C)(=O)=O)c(F)c2)n(-c2cccc(Cl)c2)n1 [Example B31, 1-[[5-tert-Butyl-2-(3-chlorophenyl)-2H-pyrazol-3-yl]-methyl]-3-[3-fluoro-4-(methanesulfonamido-methyl)-phenyl]-urea]
5 | 2 | – | CC(C)(C)c1cc(CNC(=O)Nc2cc(F)c(CNS(C)(=O)=O)c(F)c2)n(-c2cccc(Cl)c2)n1 [Example B32, 1-[[5-tert-Butyl-2-(3-chlorophenyl)-2H-pyrazol-3-yl]-methyl]-3-[3,5-difluoro-4-(methanesulfonamido-methyl)-phenyl]-urea]
6 | 9 | – | NS(=O)(=O)NCc1ccc(NC(=O)NCc2cc(C(F)(F)F)nn2-c2cccc(Cl)c2)cc1 [Example B35, 1-[[2-(3-Chlorophenyl)-5-(trifluoromethyl)-2H-pyrazol-3-yl]-methyl]-3-[4-[(sulfamoylamino)-methyl]-phenyl]-urea]
7 | 6 | – | CC(C)(C)c1cc(CNC(=O)Nc2ccc(CNS(N)(=O)=O)cc2)n(-c2cccc(Cl)c2)n1 [Example B36, 1-[[5-tert-Butyl-2-(3-chlorophenyl)-2H-pyrazol-3-yl]-methyl]-3-[4-[(sulfamoylamino)-methyl]-phenyl]-urea]
8 | 46 | – | CS(=O)(=O)NCc1ccc(CC(=O)NCc2cc(C(F)(F)F)nn2-c2cccc(F)c2)cc1F [Example B37, 2-[3-Fluoro-4-(methanesulfonamido-methyl)-phenyl]-N-[[2-(3-fluorophenyl)-5-(trifluoromethyl)-2H-pyrazol-3-yl]-methyl]-acetamide]
9 | – | 37 | NCc1ccc(NC(=O)NCc2cc(C(F)(F)F)nn2-c2cccc(Cl)c2)cc1F [Example B39, 1-[4-(Aminomethyl)-3-fluoro-phenyl]-3-[[2-(3-chlorophenyl)-5-(trifluoromethyl)-2H-pyrazol-3-yl]-methyl]-urea]
10 | 92 | – | CC(C)(C)c1cc(CNC(=O)Nc2ccc(CN)c(F)c2)n(-c2cccc(Cl)c2)n1 [Example B40, 1-[4-(Aminomethyl)-3-fluoro-phenyl]-3-[[5-tert-butyl-2-(3-chlorophenyl)-2H-pyrazol-3-yl]-methyl]-urea]
11 | 44 | – | CS(=O)(=O)NCc1ccc(NC(=O)NCc2cc(C(F)(F)F)nn2-c2cccc(F)c2)cc1 [Example B44, 1-[[2-(3-Fluorophenyl)-5-(trifluoromethyl)-2H-pyrazol-3-yl]-methyl]-3-[4-(methanesulfonamido-methyl)-phenyl]-urea]
12 | 9 | – | CC(C)(C)c1cc(CNC(=O)Nc2ccc(CNS(N)(=O)=O)c(F)c2)n(-c2cccc(Cl)c2)n1 [Example B46, 1-[[5-tert-Butyl-2-(3-chlorophenyl)-2H-pyrazol-3-yl]-methyl]-3-[3-fluoro-4-[(sulfamoylamino)-methyl]-phenyl]-urea]
13 | 40 | – | CS(=O)(=O)NCc1ccc(NC(=O)NCc2cc(C(F)(F)F)nn2-c2cccc(F)c2)cc1F [Example B48, 1-[3-Fluoro-4-(methanesulfonamido-methyl)-phenyl]-3-[[2-(3-fluorophenyl)-5-(trifluoromethyl)-2H-pyrazol-3-yl]-methyl]-urea]

Second part, the compound before the results:

Row | SMILES | Ki [nM] | inhibition at 5 µM [%]
14 | CS(=O)(=O)NCc1ccc(CC(=O)NCc2cc(C(F)(F)F)nn2-c2cccc(Cl)c2)cc1F [Example B23, N-[[2-(3-Chlorophenyl)-5-(trifluoromethyl)-2H-pyrazol-3-yl]-methyl]-2-[3-fluoro-4-(methanesulfonamido-methyl)-phenyl]-acetamide] | 13 | –
15 | CCNCc1ccc(NC(=O)NCc2cc(C(F)(F)F)nn2-c2cccc(Cl)c2)cc1F [Example B24, 1-[[2-(3-Chlorophenyl)-5-(trifluoromethyl)-2H-pyrazol-3-yl]-methyl]-3-[4-(ethylamino-methyl)-3-fluoro-phenyl]-urea] | 55 | –
16 | CCNCc1ccc(NC(=O)NCc2cc(C(C)(C)C)nn2-c2cccc(Cl)c2)cc1F [Example B25, 1-[[5-tert-Butyl-2-(3-chlorophenyl)-2H-pyrazol-3-yl]-methyl]-3-[4-(ethylamino-methyl)-3-fluoro-phenyl]-urea] | 45 | –
17 | CC(C)(C)c1cc(CNC(=O)Cc2ccc(CNS(C)(=O)=O)c(F)c2)n(-c2cccc(Cl)c2)n1 [Example B26, N-[[5-tert-Butyl-2-(3-chlorophenyl)-2H-pyrazol-3-yl]-methyl]-2-[3-fluoro-4-(methanesulfonamido-methyl)-phenyl]-acetamide] | 12 | –
18 | CS(=O)(=O)NCc1c(F)cc(NC(=O)NCc2cc(C(F)(F)F)nn2-c2cccc(Cl)c2)cc1F [Example B27, 1-[[2-(3-Chlorophenyl)-5-(trifluoromethyl)-2H-pyrazol-3-yl]-methyl]-3-[3,5-difluoro-4-(methanesulfonamido-methyl)-phenyl]-urea] | 8 | –
19 | CN(C)Cc1ccc(NC(=O)NCc2cc(C(F)(F)F)nn2-c2cccc(Cl)c2)cc1F [Example B38, 1-[[2-(3-Chlorophenyl)-5-(trifluoromethyl)-2H-pyrazol-3-yl]-methyl]-3-[4-(dimethylaminomethyl)-3-fluoro-phenyl]-urea] | – | 18
20 | NS(=O)(=O)NCc1ccc(NC(=O)NCc2cc(C(F)(F)F)nn2-c2cccc(Cl)c2)cc1F [Example B41, 1-[[2-(3-Chlorophenyl)-5-(trifluoromethyl)-2H-pyrazol-3-yl]methyl]-3-[3-fluoro-4-[(sulfamoylamino)-methyl]-phenyl]-urea] | 74 | –
21 | CC(C(=O)NCc1cc(C(F)(F)F)nn1-c1cccc(Cl)c1)c1ccc(CN)c(F)c1 (centres unmarked) [Example B42, 2-[4-(Aminomethyl)-3-fluoro-phenyl]-N-[[2-(3-chlorophenyl)-5-(trifluoromethyl)-2H-pyrazol-3-yl]-methyl]-propionamide] | 46 | –
22 | CC(C(=O)NCc1cc(C(C)(C)C)nn1-c1cccc(C(F)(F)F)c1)c1ccc(CNS(C)(=O)=O)c(F)c1 (centres unmarked) [Example B43, N-[[5-tert-Butyl-2-[3-(trifluoromethyl)phenyl]-2H-pyrazol-3-yl]-methyl]-2-[3-fluoro-4-(methanesulfonamido-methyl)-phenyl]-propionamide] | 1 | –
23 | CC(C)(C)c1cc(CNC(=O)Nc2ccc(CNS(C)(=O)=O)cc2)n(-c2cccc(F)c2)n1 [Example B45, 1-[[5-tert-Butyl-2-(3-fluorophenyl)-2H-pyrazol-3-yl]-methyl]-3-[4-(methanesulfonamido-methyl)-phenyl]-urea] | 31 | –

Source: patent US9624209B2, “Substituted phenylureas and phenylamides as vanilloid receptor ligands” (Gruenenthal GmbH, priority 2009, dated 2017)
